Data published in PubChem BioAssay AID1845201 (Molecular Pharmacology Branch, DTP, NCI, 2023).

Tested on: COR L88 complex tumor spheroid viability
Assay: Anticancer human tumor COR L88 cell line growth inhibition;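 further: compound exposure lasted 7 days before viability readout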;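 on viability, T/C: percent of DMSO vehicle-treated spheroids = 100%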
Conditions: for IC50: curve of first compound; for viability, T/C: stronger effect = lower value
Outline: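 Complex tumor spheroids combined malignant cells with endothelial cells and mesenchymal stem cells. DNA-damaging drugs and DNA repair inhibitors were tested alone and in combination, at half-log dilutions down from clinical Cmax (top 10 microM if Cmax unknown), 0.25% DMSO final.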

Question: With CC(C)n1c(=O)n(C)c2cnc3cc(F)c(-c4ccc(OCCCN5CCCCC5)nc4)cc3c21 + Cn1nnc2c(C(N)=O)ncn2c1=O as the compound, how does the IC50 (second compound 1 µM) read?
Answer: Its IC50 is over 10 µM.

Question: What about the IC50 (second compound 3.16 µM) of the same compound?
Answer: Its IC50 is over 10 µM.

Question: What about the IC50 (second compound 10 µM) of the same compound?
Answer: The IC50 was over 10 µM.

Question: And the IC50 (second compound 31.6 µM)?
Answer: The IC50 was 6.87 µM.

Question: And the IC50 (second compound 100 µM)?
Answer: Its IC50 is 5.06 µM.

Question: And the viability, T/C (second compound 1 µM, first compound 0.0316 µM)?
Answer: The viability, T/C was 104%.

Question: What about the viability, T/C (second compound 1 µM, first compound 0.1 µM) of the same compound?
Answer: The viability, T/C was 97.7%.

Question: What about the viability, T/C (second compound 1 µM, first compound 0.316 µM) of the same compound?
Answer: Its viability, T/C is 98.9%.

Question: What about the viability, T/C (second compound 1 µM, first compound 1 µM) of the same compound?
Answer: Its viability, T/C is 94.5%.

Question: And the viability, T/C (second compound 1 µM, first compound 3.16 µM)?
Answer: Its viability, T/C is 80.7%.

Question: And the viability, T/C (second compound 1 µM, first compound 10 µM)?
Answer: The viability, T/C was 52.8%.

Question: And the viability, T/C (second compound 3.16 µM, first compound 0.0316 µM)?
Answer: Its viability, T/C is 96.2%.

Question: And the viability, T/C (second compound 3.16 µM, first compound 0.1 µM)?
Answer: The viability, T/C was 105%.

Question: And the viability, T/C (second compound 3.16 µM, first compound 0.316 µM)?
Answer: Its viability, T/C is 98.2%.

Question: What about the viability, T/C (second compound 3.16 µM, first compound 1 µM) of the same compound?
Answer: Its viability, T/C is 95.4%.

Question: What about the viability, T/C (second compound 3.16 µM, first compound 3.16 µM) of the same compound?
Answer: Its viability, T/C is 80%.

Question: What about the viability, T/C (second compound 3.16 µM, first compound 10 µM) of the same compound?
Answer: The viability, T/C was 54.6%.

Question: And the viability, T/C (second compound 10 µM, first compound 0.0316 µM)?
Answer: The viability, T/C was 96.2%.

Question: What about the viability, T/C (second compound 10 µM, first compound 0.1 µM) of the same compound?
Answer: Its viability, T/C is 91.6%.

Question: And the viability, T/C (second compound 10 µM, first compound 0.316 µM)?
Answer: The viability, T/C was 94.5%.

Question: What about the viability, T/C (second compound 10 µM, first compound 1 µM) of the same compound?
Answer: The viability, T/C was 91.2%.

Question: And the viability, T/C (second compound 10 µM, first compound 3.16 µM)?
Answer: Its viability, T/C is 76.1%.

Question: What about the viability, T/C (second compound 10 µM, first compound 10 µM) of the same compound?
Answer: Its viability, T/C is 50.8%.

Question: What about the viability, T/C (second compound 31.6 µM, first compound 0.0316 µM) of the same compound?
Answer: Its viability, T/C is 87.1%.

Question: And the viability, T/C (second compound 31.6 µM, first compound 0.1 µM)?
Answer: Its viability, T/C is 84.8%.

Question: What about the viability, T/C (second compound 31.6 µM, first compound 0.316 µM) of the same compound?
Answer: The viability, T/C was 87.5%.

Question: And the viability, T/C (second compound 31.6 µM, first compound 1 µM)?
Answer: Its viability, T/C is 80.9%.

Question: And the viability, T/C (second compound 31.6 µM, first compound 3.16 µM)?
Answer: Its viability, T/C is 67.4%.

Question: And the viability, T/C (second compound 31.6 µM, first compound 10 µM)?
Answer: The viability, T/C was 41.2%.

Question: What about the viability, T/C (second compound 100 µM, first compound 0.0316 µM) of the same compound?
Answer: Its viability, T/C is 72.5%.

Question: What about the viability, T/C (second compound 100 µM, first compound 0.1 µM) of the same compound?
Answer: Its viability, T/C is 69%.

Question: What about the viability, T/C (second compound 100 µM, first compound 0.316 µM) of the same compound?
Answer: Its viability, T/C is 74%.

Question: What about the viability, T/C (second compound 100 µM, first compound 1 µM) of the same compound?
Answer: The viability, T/C was 76%.

Question: What about the viability, T/C (second compound 100 µM, first compound 3.16 µM) of the same compound?
Answer: The viability, T/C was 56.9%.

Question: What about the viability, T/C (second compound 100 µM, first compound 10 µM) of the same compound?
Answer: Its viability, T/C is 40.1%.
